Measurements: PubChem BioAssay AID1963829 (Molecular Pharmacology Branch, DTP, NCI, 2024)

System: 935938-334-R-J1-PDC complex spheroid viability
Experiment: Anticancer human tumor 935938-334-R-J1-PDC patient-derived small intestine adenocarcinoma cell line growth inhibition [POLQ]
Settings: for IC50: curve of first compound; for viability, T/C: stronger effect = lower value
How it was run: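 PDC + HUVEC + MSC complex spheroids; POLQ inhibitors ± partner drugs; top conc. at/near clinical Cmax, else 10 microM (SN-38 1 microM), half-log dilutions; 37 degrees C, 5% CO2.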

[1] = second compound 0.0316 µM, first compound 0.0316 µM
[2] = second compound 0.0316 µM, first compound 0.1 µM
[3] = second compound 0.1 µM, first compound 0.0316 µM
[4] = second compound 0.1 µM, first compound 0.1 µM
[5] = second compound 0.316 µM, first compound 0.0316 µM
[6] = second compound 0.316 µM, first compound 0.1 µM
[7] = second compound 1 µM, first compound 0.0316 µM
[8] = second compound 1 µM, first compound 0.1 µM
[9] = second compound 3.16 µM, first compound 0.0316 µM
[10] = second compound 3.16 µM, first compound 0.1 µM
[11] = second compound 10 µM, first compound 0.0316 µM
[12] = second compound 10 µM, first compound 0.1 µM
[13] = second compound 0.0316 µM, first compound 0.316 µM
[14] = second compound 0.0316 µM, first compound 1 µM
[15] = second compound 0.0316 µM, first compound 3.16 µM
[16] = second compound 0.0316 µM, first compound 10 µM
[17] = second compound 0.1 µM, first compound 0.316 µM
[18] = second compound 0.1 µM, first compound 1 µM
[19] = second compound 0.1 µM, first compound 3.16 µM
[20] = second compound 0.1 µM, first compound 10 µM
[21] = second compound 0.316 µM, first compound 0.316 µM
[22] = second compound 0.316 µM, first compound 1 µM
[23] = second compound 0.316 µM, first compound 3.16 µM
[24] = second compound 0.316 µM, first compound 10 µM
[25] = second compound 1 µM, first compound 0.316 µM
[26] = second compound 1 µM, first compound 1 µM
[27] = second compound 1 µM, first compound 3.16 µM
[28] = second compound 1 µM, first compound 10 µM
[29] = second compound 3.16 µM, first compound 0.316 µM
[30] = second compound 3.16 µM, first compound 1 µM
[31] = second compound 3.16 µM, first compound 3.16 µM
[32] = second compound 3.16 µM, first compound 10 µM
[33] = second compound 10 µM, first compound 0.316 µM
[34] = second compound 10 µM, first compound 1 µM
[35] = second compound 10 µM, first compound 3.16 µM
[36] = second compound 10 µM, first compound 10 µM
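Further: spheroids exposed to drugs for seven days before viability read.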
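Wherever viability, T/C is given: 100% = DMSO vehicle control wells.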

`Cn1ncnc1[C@H]1c2n[nH]c(=O)c3cc(F)cc(c23)N[C@@H]1c1ccc(F)cc1` + Nc1ccc(C#CCN(C(=O)Cc2ncc(C(F)(F)F)cc2C(F)(F)F)c2ccc(F)cc2)nn1 showed an IC50 (second compound 0.0316 µM) greater than 100 nM, an IC50 (second compound 0.1 µM) greater than 100 nM and an IC50 (second compound 0.316 µM) greater than 100 nM. It also gave an IC50 (second compound 1 µM) greater than 100 nM, an IC50 (second compound 3.16 µM) greater than 100 nM and an IC50 (second compound 10 µM) greater than 100 nM. For the same compound, the viability, T/C (second compound 0.0316 µM, first compound 0.000316 µM) was 98%, the viability, T/C (second compound 0.0316 µM, first compound 0.001 µM) was 106% and the viability, T/C (second compound 0.0316 µM, first compound 0.00316 µM) was 94.5%. The viability, T/C (second compound 0.0316 µM, first compound 0.01 µM) was 73.1%, the viability, T/C [1] was 83.9% and the viability, T/C [2] was 101%. It also gave a viability, T/C (second compound 0.1 µM, first compound 0.000316 µM) of 68%, a viability, T/C (second compound 0.1 µM, first compound 0.001 µM) of 103% and a viability, T/C (second compound 0.1 µM, first compound 0.00316 µM) of 88.4%. For the same compound, the viability, T/C (second compound 0.1 µM, first compound 0.01 µM) was 97.9%, the viability, T/C [3] was 86.5% and the viability, T/C [4] was 92.9%. The viability, T/C (second compound 0.316 µM, first compound 0.000316 µM) was 102%, the viability, T/C (second compound 0.316 µM, first compound 0.001 µM) was 104% and the viability, T/C (second compound 0.316 µM, first compound 0.00316 µM) was 107%. For the same compound, the viability, T/C (second compound 0.316 µM, first compound 0.01 µM) was 105%, the viability, T/C [5] was 106% and the viability, T/C [6] was 76.9%. It also gave a viability, T/C (second compound 1 µM, first compound 0.000316 µM) of 95.5%, a viability, T/C (second compound 1 µM, first compound 0.001 µM) of 85.5% and a viability, T/C (second compound 1 µM, first compound 0.00316 µM) of 91.9%. The viability, T/C (second compound 1 µM, first compound 0.01 µM) was 79%, the viability, T/C [7] was 96.6% and the viability, T/C [8] was 85.1%. The viability, T/C (second compound 3.16 µM, first compound 0.000316 µM) was 69%, the viability, T/C (second compound 3.16 µM, first compound 0.001 µM) was 81.4% and the viability, T/C (second compound 3.16 µM, first compound 0.00316 µM) was 88.1%. For the same compound, the viability, T/C (second compound 3.16 µM, first compound 0.01 µM) was 86.9%, the viability, T/C [9] was 85.1% and the viability, T/C [10] was 111%. For the same compound, the viability, T/C (second compound 10 µM, first compound 0.000316 µM) was 107%, the viability, T/C (second compound 10 µM, first compound 0.001 µM) was 106% and the viability, T/C (second compound 10 µM, first compound 0.00316 µM) was 106%. It also gave a viability, T/C (second compound 10 µM, first compound 0.01 µM) of 94.3%, a viability, T/C [11] of 99.5% and a viability, T/C [12] of 92%.
`COc1cccc2c1C(=O)c1c(O)c3c(c(O)c1C2=O)CC(O)(C(=O)CO)CC3OC1CC(N)C(O)C(C)O1` (stereo not drawn) + Nc1ccc(C#CCN(C(=O)Cc2ncc(C(F)(F)F)cc2C(F)(F)F)c2ccc(F)cc2)nn1 was tested, and the IC50 (second compound 0.0316 µM) was 70.9 nM, the IC50 (second compound 0.1 µM) was 86.4 nM and the IC50 (second compound 0.316 µM) was less than 31.6 nM. It also gave an IC50 (second compound 1 µM) of 54.6 nM, an IC50 (second compound 3.16 µM) of 35.3 nM and an IC50 (second compound 10 µM) of 78.1 nM. For the same compound, the viability, T/C [1] was 67.3%, the viability, T/C [2] was 39.4% and the viability, T/C [13] was 27.4%. It also gave a viability, T/C [14] of 22.2%, a viability, T/C [15] of 8.04% and a viability, T/C [16] of 3.61%. For the same compound, the viability, T/C [3] was 69.9%, the viability, T/C [4] was 45.5% and the viability, T/C [17] was 31.3%. It also gave a viability, T/C [18] of 19.6%, a viability, T/C [19] of 7.02% and a viability, T/C [20] of 3.54%. The viability, T/C [5] was 49.8%, the viability, T/C [6] was 32.1% and the viability, T/C [21] was 30.9%. The viability, T/C [22] was 23.7%, the viability, T/C [23] was 8.73% and the viability, T/C [24] was 3.32%. For the same compound, the viability, T/C [7] was 58.9%, the viability, T/C [8] was 38.8% and the viability, T/C [25] was 30.3%. It also gave a viability, T/C [26] of 18.8%, a viability, T/C [27] of 9.11% and a viability, T/C [28] of 4.86%. The viability, T/C [9] was 52.6%, the viability, T/C [10] was 35.4% and the viability, T/C [29] was 27.9%. For the same compound, the viability, T/C [30] was 20.3%, the viability, T/C [31] was 5.88% and the viability, T/C [32] was 5.57%. The viability, T/C [11] was 68.1%, the viability, T/C [12] was 38.4% and the viability, T/C [33] was 38%. It also gave a viability, T/C [34] of 18.9%, a viability, T/C [35] of 5.97% and a viability, T/C [36] of 6.61%.
For `COc1cccc2c1C(=O)c1c(O)c3c(c(O)c1C2=O)CC(O)(C(=O)CO)CC3OC1CC(N)C(O)C(C)O1` (stereo not drawn) + COC1C(OC(N)=O)C(O)C(Oc2ccc3c(O)c(NC(=O)c4ccc(O)c(CC=C(C)C)c4)c(=O)oc3c2C)OC1(C)C, the IC50 (second compound 0.0316 µM) was 217 nM, the IC50 (second compound 0.1 µM) was 221 nM and the IC50 (second compound 0.316 µM) was 190 nM. For the same compound, the IC50 (second compound 1 µM) was 228 nM, the IC50 (second compound 3.16 µM) was 211 nM and the IC50 (second compound 10 µM) was 216 nM. The viability, T/C [1] was 84.4%, the viability, T/C [2] was 93.7% and the viability, T/C [13] was 30.8%. For the same compound, the viability, T/C [14] was 19.2%, the viability, T/C [15] was 5.61% and the viability, T/C [16] was 7.78%. For the same compound, the viability, T/C [3] was 75.3%, the viability, T/C [4] was 98.3% and the viability, T/C [17] was 33.4%. The viability, T/C [18] was 20.2%, the viability, T/C [19] was 4.7% and the viability, T/C [20] was 4.37%. For the same compound, the viability, T/C [5] was 67.5%, the viability, T/C [6] was 93.3% and the viability, T/C [21] was 25.9%. The viability, T/C [22] was 20.4%, the viability, T/C [23] was 6.24% and the viability, T/C [24] was 5.64%. For the same compound, the viability, T/C [7] was 66.8%, the viability, T/C [8] was 103% and the viability, T/C [25] was 36%. For the same compound, the viability, T/C [26] was 23.7%, the viability, T/C [27] was 6.64% and the viability, T/C [28] was 5.44%. The viability, T/C [9] was 52.7%, the viability, T/C [10] was 113% and the viability, T/C [29] was 32.1%. For the same compound, the viability, T/C [30] was 22.1%, the viability, T/C [31] was 6.52% and the viability, T/C [32] was 3.3%. For the same compound, the viability, T/C [11] was 61.5%, the viability, T/C [12] was 122% and the viability, T/C [33] was 29%. The viability, T/C [34] was 21.3%, the viability, T/C [35] was 5.32% and the viability, T/C [36] was 5.87%.
`C=CC(=O)N1CCN(c2nc(=O)n(-c3c(C)ccnc3C(C)C)c3nc(-c4c(O)cccc4F)c(F)cc23)C(C)C1` (stereo not drawn) + COC1C(OC(N)=O)C(O)C(Oc2ccc3c(O)c(NC(=O)c4ccc(O)c(CC=C(C)C)c4)c(=O)oc3c2C)OC1(C)C was tested, and the IC50 (second compound 0.0316 µM) was greater than 10000 nM, the IC50 (second compound 0.1 µM) was greater than 10000 nM and the IC50 (second compound 0.316 µM) was greater than 10000 nM. For the same compound, the IC50 (second compound 1 µM) was greater than 10000 nM, the IC50 (second compound 3.16 µM) was greater than 10000 nM and the IC50 (second compound 10 µM) was greater than 10000 nM. For the same compound, the viability, T/C [1] was 107%, the viability, T/C [2] was 88.4% and the viability, T/C [13] was 107%. The viability, T/C [14] was 82.9%, the viability, T/C [15] was 131% and the viability, T/C [16] was 111%. For the same compound, the viability, T/C [3] was 85.3%, the viability, T/C [4] was 110% and the viability, T/C [17] was 90.8%. The viability, T/C [18] was 99.3%, the viability, T/C [19] was 104% and the viability, T/C [20] was 126%. The viability, T/C [5] was 129%, the viability, T/C [6] was 87.2% and the viability, T/C [21] was 103%. The viability, T/C [22] was 80.7%, the viability, T/C [23] was 85.5% and the viability, T/C [24] was 115%. The viability, T/C [7] was 101%, the viability, T/C [8] was 86.4% and the viability, T/C [25] was 101%. For the same compound, the viability, T/C [26] was 107%, the viability, T/C [27] was 102% and the viability, T/C [28] was 113%. For the same compound, the viability, T/C [9] was 117%, the viability, T/C [10] was 99.7% and the viability, T/C [29] was 93.4%. For the same compound, the viability, T/C [30] was 96.9%, the viability, T/C [31] was 102% and the viability, T/C [32] was 111%. For the same compound, the viability, T/C [11] was 102%, the viability, T/C [12] was 81.3% and the viability, T/C [33] was 106%. The viability, T/C [34] was 94.7%, the viability, T/C [35] was 103% and the viability, T/C [36] was 118%.
